Laboratory results reported in ChEMBL document CHEMBL1145769, “Novel openers of Ca2+-dependent large-conductance potassium channels: symmetrical pharmacophore and electrophysiological evaluation of bisphenols” (Bioorg Med Chem Lett, 2003).

Legend:
[1] = target: Calcium-activated potassium channel subunit alpha-1 (Homo sapiens) (UniProt Q12791); experiment: Maxi-K opening activity on cloned human (hSlo) large- conductance (BK) Ca(2+)-activated K+ channel expressed in Xenopus laevis oocytes at concentration of 20 uM; type: functional, cell-based; conditions: Oocyte
Calcium-activated potassium channel subunit alpha-1 (Homo sapiens), sequence (Q12791 whole entry): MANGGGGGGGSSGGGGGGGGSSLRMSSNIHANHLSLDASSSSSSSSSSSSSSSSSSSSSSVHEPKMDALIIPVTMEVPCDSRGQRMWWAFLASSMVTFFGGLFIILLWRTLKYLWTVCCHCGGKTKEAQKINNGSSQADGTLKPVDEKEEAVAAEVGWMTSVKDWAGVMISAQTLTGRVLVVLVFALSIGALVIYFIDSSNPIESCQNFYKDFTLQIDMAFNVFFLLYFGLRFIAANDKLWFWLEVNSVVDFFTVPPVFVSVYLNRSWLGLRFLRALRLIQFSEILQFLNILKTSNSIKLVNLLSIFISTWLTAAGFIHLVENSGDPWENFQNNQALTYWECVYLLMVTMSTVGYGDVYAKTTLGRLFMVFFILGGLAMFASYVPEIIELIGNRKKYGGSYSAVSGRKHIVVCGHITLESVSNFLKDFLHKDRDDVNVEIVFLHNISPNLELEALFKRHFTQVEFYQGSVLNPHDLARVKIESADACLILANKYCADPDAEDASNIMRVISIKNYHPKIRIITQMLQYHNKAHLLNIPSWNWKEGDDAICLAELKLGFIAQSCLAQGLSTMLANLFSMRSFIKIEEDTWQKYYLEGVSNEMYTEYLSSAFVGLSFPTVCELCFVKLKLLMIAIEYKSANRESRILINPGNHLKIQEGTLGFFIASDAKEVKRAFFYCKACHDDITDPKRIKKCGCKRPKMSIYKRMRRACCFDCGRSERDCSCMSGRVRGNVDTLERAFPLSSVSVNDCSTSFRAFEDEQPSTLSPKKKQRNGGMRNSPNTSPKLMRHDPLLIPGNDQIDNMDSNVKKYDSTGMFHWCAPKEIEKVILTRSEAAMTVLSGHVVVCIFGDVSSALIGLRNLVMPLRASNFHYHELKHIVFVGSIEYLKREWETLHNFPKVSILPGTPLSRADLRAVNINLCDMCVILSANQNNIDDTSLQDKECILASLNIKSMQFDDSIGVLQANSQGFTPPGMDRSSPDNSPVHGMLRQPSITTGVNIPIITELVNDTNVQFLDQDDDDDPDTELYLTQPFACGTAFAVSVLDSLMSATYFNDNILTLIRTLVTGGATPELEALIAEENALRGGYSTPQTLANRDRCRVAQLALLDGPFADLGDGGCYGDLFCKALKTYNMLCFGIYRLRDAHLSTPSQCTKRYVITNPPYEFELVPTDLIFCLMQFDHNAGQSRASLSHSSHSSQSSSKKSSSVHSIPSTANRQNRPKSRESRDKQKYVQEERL

[2] = pKa value was determined; type: physicochemical

SMILES	Control current [1] [%]	pKa [2]
O=C(Nc1cc(Cl)cc(Cl)c1O)Nc1cc(Cl)cc(Cl)c1O	196	7.4
Oc1c(Cl)cccc1Cc1cccc(Cl)c1O	95.9	8.2
O=C(Nc1cc(Cl)ccc1O)Nc1cc(Cl)ccc1O	150	8.9
Oc1ccc(Br)cc1-c1cc(Br)ccc1O	97	8.6
CCCc1ccc(O)c(-c2cc(CCC)ccc2O)c1	95.9	9.3
CN(C)Cc1cc(Cl)cc(Cc2cc(Cl)cc(CN(C)C)c2O)c1O	94.7	9.6
O=C(Nc1cccc(C(F)(F)F)c1)Nc1cc(Cl)ccc1O	124	9.3
Oc1c(Cl)cc(Cl)cc1Cc1cc(Cl)cc(Cl)c1O	245	7.7
Oc1ccc(F)cc1Sc1cc(F)ccc1O	98.8	8.4
Oc1c(Cl)cc(Cl)c(Cl)c1Cc1c(O)c(Cl)cc(Cl)c1Cl [HEXACHLOROPHENE]	237	6.6
O=c1[nH]c2cc(C(F)(F)F)ccc2n1-c1cc(Cl)ccc1O	132	9.6
Oc1ccc(Cl)cc1Cc1cc(Cl)ccc1O [DICHLOROPHEN]	74.3	9.3
Oc1ccc(F)cc1Cc1cc(F)ccc1O	83.2	9.7
Oc1c(Br)cc(Br)cc1-c1cc(Br)cc(Br)c1O [BROMOPHENE]	264	6.7
Oc1c(Cl)cc(Cl)cc1Sc1cc(Cl)cc(Cl)c1O [BITHIONOL]	199	6.3
